According to patent US20240059658A1 (Emory University, priority 2019, published 2024):

Tested on: EU-1
Assay: WST cytotoxicity assay, cancer cell EU-1
Format: cell-based, human
Conditions: Homo sapiens, EU-1, EU-1; no other cell line named in the cell; read-out: Cancer cell (EU-1) cytotoxicity IC50
Description: This study used two ALL cell lines (EU-1 and EU-3) and three NB cell lines (NB-1643, SHEP1 and LA1-55N). All 5 cancer cell lines were established from pediatric ALL or NB patients and were well-characterized for their expression of MDM2 and p53-status, as reported previously. All cell lines were grown in standard culture medium (RPMI 1640 containing 10% FBS, 2 mmol/L L-glutamine, 50 U penicillin and 50 μg/mL streptomycin) at 37° C. in a humidified atmosphere containing 5% CO2.
The cytotoxic effect of MX 69 and MX69 analogs on cancer cells was determined using the water-soluble tetrazolium salt (WST) assay. Briefly, cells cultured in 96-well microtiter plates were treated with different concentrations of AQ-101 for a 20-h period. WST (25 μg/well) was then added and incubation continued for an additional 4 h, after which optical density (OD) was read with a microplate reader (test wavelength of 450 nm; reference wavelength of 620 nm).

Structure (SMILES) | IC50 [µM]
CC(=O)c1ccc(NS(=O)(=O)c2ccc3c(c2)[C@H]2OCC[C@H]2C(c2ccc(C(C)=O)cc2)N3)cc1 (stereo partly shown) [Compound 69L111] | 1.37
CC(=O)c1cccc(C2CC(=O)c3cc(S(=O)(=O)Nc4cccc(C(C)C)c4)ccc3N2)c1 (stereo not shown) [Compound 69L135] | 0.15
CC(C)C(=O)c1ccc([C@@H]2Nc3ccc(S(=O)(=O)Nc4ccc(C(F)(F)F)c(C(F)(F)F)c4)cc3C3OCC[C@H]32)cc1 (stereo in doubt) [Compound 69L92, N-(3,4-bis(trifluoromethyl)phenyl)-4-(4-isobutyrylphenyl)-2,3,3a,4,5,9b-hexahydrofuro[3,2-c]quinoline-8-sulfonamide] | > 10
Cc1ccc(NS(=O)(=O)c2ccc3c(c2)[C@H]2OCC[C@H]2C(c2ccc(C(C)C)cc2)N3)cc1C (stereo partly shown) [Compound 69L31] | 4.24
COC(=O)c1ccc([C@@H]2Nc3ccc(S(=O)(=O)Nc4ccc(C)c(C)c4)cc3[C@H]3C=CC[C@H]32)cc1 [Compound 69L16] | 4.66
Cc1ccc(NS(=O)(=O)c2ccc3c(c2)C2NCC[C@H]2[C@H](c2ccc(S(C)(=O)=O)cc2)N3)cc1C (stereo partly shown) [Compound 69L44] | 44.9
CC(=O)N1CCC([C@@H]2Nc3ccc(S(=O)(=O)Nc4ccc(C)c(C)c4)cc3C3OCC[C@H]32)CC1 (stereo partly shown) [Compound 69L57, 4-(1-acetylpiperidin-4-yl)-N-(3,4-dimethylphenyl)-2,3,3a,4,5,9b-hexahydrofuran[3,2-c]quinolone-8-sulfonamine] | 10.8
COC(=O)c1ccc([C@@H]2Nc3ccc(S(=O)(=O)Nc4ccc(C)c(C)c4)cc3[C@H]3OCC[C@H]32)cc1 [Compound 69L2] | 3.5 to 5.3
CC(C)C(=O)c1cccc(C2CC(=O)c3cc(S(=O)(=O)Nc4ccc(Cl)c(Cl)c4)ccc3N2)c1 (stereo not shown) [Compound 69L145] | 3.5
COc1cccc(NS(=O)(=O)c2ccc3c(c2)C(=O)CC(c2cccc(C(=O)C(C)C)c2)N3)c1 (stereo not shown) [Compound 69L157, 2-(3-isobutyrylphenyl)-N-(3-methoxyphenyl)-4-oxo-1,2,3,4-tetrahydroquinoline-6-sulfonamide] | 0.33
Cc1ccc(NS(=O)(=O)c2ccc3c(c2)[C@H]2NCC[C@H]2[C@H](c2ccc(C(=O)C(C)C)cc2)N3)cc1C [Compound 69L82] | 29.7
CC(=O)c1cccc(C2CC(=O)c3cc(S(=O)(=O)Nc4ccc5c(c4)OCO5)ccc3N2)c1 (stereo not shown) [Compound 69L147] | 1.16
Cc1ccc(NS(=O)(=O)c2ccc3c(c2)[C@H]2OCC[C@H]2C(c2ccc(C(=O)C4CC4)cc2)N3)cc1C (stereo partly shown) [Compound 69L67] | 5.18
CCOC1C[C@@H](c2ccc(C(C)=O)cc2)Nc2ccc(S(=O)(=O)Nc3ccc(C)c(C)c3)cc21 (stereo partly shown) [Compound 69L46] | 6.5
COc1cc(NS(=O)(=O)c2ccc3c(c2)C(=O)CC(c2cccc(C(=O)N(C)C)c2)N3)ccc1C (stereo not shown) [Compound 69L161] | 0.82
COC(=O)c1ccc([C@H]2Nc3ccc(S(=O)(=O)Nc4ccc(C)c(C)c4)cc3C3OCCC32)cc1 (stereo partly shown) [Compound 69L12] | 3 to 3.9
Cc1ccc(NS(=O)(=O)c2ccc3c(c2)C2NCC[C@H]2[C@H](c2ccc(C(=O)O)cc2)N3)cc1C (stereo partly shown) [Compound 69L41] | > 50
Cc1ccc(NS(=O)(=O)c2ccc3[nH]c(-c4ccc(C(=O)C(C)C)cc4)c(I)c(=O)c3c2)cc1C [Compound 69L97] | 9.36
COc1cc(NS(=O)(=O)c2ccc3c(c2)C(=O)CC(c2ccc(C(C)=O)cc2)N3)ccc1C (stereo not shown) [Compound 69L165] | 8.9
Cc1ccc(NS(=O)(=O)c2ccc3c(c2)C(=O)CC(c2cccc(C(=O)N(C)C)c2)N3)cc1C (stereo not shown) [Compound 69L158] | 0.63
Cc1ccc(NS(=O)(=O)c2ccc3c(c2)[C@H]2OCC[C@H]2C(c2ccc(B(O)O)cc2)N3)cc1C (stereo partly shown) [Compound 69L18] | 14.7
Cc1ccc(NS(=O)(=O)c2ccc3c(c2)C2OCC[C@@H]2[C@H](c2ccc(C(=O)C(C)C)cc2)N3)cc1C (stereo partly shown) [Compound 69L52d] | 0.5
CC(C)C(=O)c1cccc(C2CC(=O)c3cc(S(=O)(=O)Nc4cccc5c4COC5=O)ccc3N2)c1 (stereo not shown) [Compound 69L149] | 0.58
CCC(=O)c1cccc(NS(=O)(=O)c2ccc3c(c2)C(=O)CC(c2ccc4c(c2)CCO4)N3)c1 (stereo not shown) [Compound 69L129] | 0.65
COc1cc(NS(=O)(=O)c2ccc3c(c2)C(=O)CC(c2cccc(C(C)=O)c2)N3)ccc1C (stereo not shown) [Compound 69L164] | 0.71
CC(=O)c1cccc(NS(=O)(=O)c2ccc3c(c2)C2NCC[C@H]2[C@H](c2ccc(C(=O)C(C)C)cc2)N3)c1 (stereo partly drawn) [69L130 cis] | > 10
CC(C)C(=O)c1ccc(C2Nc3ccc(S(=O)(=O)Nc4ccc5c(c4)OCO5)cc3[C@H]3OCC[C@@H]23)cc1 (stereo partly shown) [Compound 69L142] | > 5
O=S(=O)(Nc1ccc(C(F)(F)F)c(C(F)(F)F)c1)c1ccc2c(c1)C1OCC[C@H]1C(C1CCCCC1)N2 (stereo partly shown) [Compound 69L91] | > 10

Structure (SMILES) | IC50 [µM]
COC(=O)c1ccc([C@@H]2Nc3ccc(S(=O)(=O)Nc4ccc(C)c(C)c4)cc3[C@@H]3OCC[C@H]23)cc1 [Compound 69L29] | 2 to 2.7
CC(C)C(=O)c1ccc(C2Nc3ccc(S(=O)(=O)Nc4cccc(C(C)(C)C)c4)cc3[C@H]3OCC[C@@H]23)cc1 (stereo partly shown) [Compound 69L136] | 6.16
CC(C)c1cccc(C2CC(=O)c3cc(S(=O)(=O)Nc4ccc5c(c4)CCO5)ccc3N2)c1 (stereo not shown) [Compound 69L138] | 1.4
COC(=O)c1ccc([C@H]2Nc3ccc(S(=O)(=O)Nc4ccc(C)c(C)c4)cc3[C@H]3OCC[C@@H]23)cc1 [Compound 69L28] | 8.4 to 11.9
Cc1ccc(NS(=O)(=O)c2ccc3c(c2)[C@H]2OCC[C@H]2C(c2ccc(S(C)(=O)=O)cc2)N3)cc1C (stereo partly shown) [Compound 69L19] | 4.06
Cc1ccc(NS(=O)(=O)c2ccc3c(c2)[C@H]2c4ccccc4C[C@H]2[C@H](c2ccc(C(=O)O)cc2)N3)cc1C [Compound 69L6] | 20.5
COC(=O)c1ccc([C@H]2Nc3ccc(S(=O)(=O)Nc4ccc(C)c(C)c4)cc3C3NCC[C@H]32)cc1 (stereo partly shown) [Compound 69L35] | 4.86
COC(=O)c1ccc(C2Nc3ccc(S(=O)(=O)Nc4ccc(C)c(C)c4)cc3[C@H]3OCCC[C@@H]23)cc1 (stereo partly shown) [Compound 69L9] | 4.56
Cc1cc(NS(=O)(=O)c2ccc3c(c2)C2OCC[C@H]2C(c2ccc(C(=O)C(C)C)cc2)N3)ccc1C(F)(F)F (stereo partly shown) [Compound 69L89] | 7.2
Cc1ccc(NS(=O)(=O)c2ccc3c(c2)C2OCC[C@H]2[C@@H](c2c[nH]c4ccccc24)N3)cc1C (stereo partly shown) [Compound 69L36] | 9.2
Cc1ccc(NS(=O)(=O)c2ccc3c(c2)C2NCC[C@H]2[C@@H](c2ccc(S(C)(=O)=O)cc2)N3)cc1C (stereo partly shown) [Compound 69L43] | 12
Cc1ccc(NS(=O)(=O)c2ccc3c(c2)[C@H]2OCC[C@H]2[C@H](c2ccc(C(=O)O)cc2)N3)cc1C [Compound 69L5] | > 50
CN(C)c1cccc(NS(=O)(=O)c2ccc3c(c2)[C@H]2OCC[C@H]2[C@H](C2CCCCC2)N3)c1 [Compound 69L143] | 3.96
Cc1ccc(NS(=O)(=O)c2ccc3c(c2Cl)[C@H]2C=CC[C@H]2[C@H](c2ccc(S(C)(=O)=O)cc2)N3)cc1C [Compound 69L23] | 23.4
Cc1ccc(NS(=O)(=O)c2ccc3c(c2)C(O)C[C@H](c2ccc(C(=O)O)cc2)N3)cc1C (stereo partly shown) [Compound 69L40] | > 50
CC(=O)c1ccc([C@H]2Nc3ccc(S(=O)(=O)Nc4ccc(C)c(C)c4)cc3C3NCC[C@H]32)cc1 (stereo partly shown) [Compound 69L49] | 4.6
Cc1ccc(NS(=O)(=O)c2ccc3c(c2)C2NCC[C@H]2C(c2c[nH]c4ccccc24)N3)cc1C (stereo partly shown) [Compound 69L37] | 4.81
Cc1ccc(NS(=O)(=O)c2ccc3c(c2)[C@H]2OCC[C@H]2C(c2ccc(-n4ccccc4=O)cc2)N3)cc1C (stereo partly shown) [Compound 69L15] | 17.9
CC(C)C(=O)c1cccc(C2CC(=O)c3cc(S(=O)(=O)Nc4cccc(C(C)C)c4)ccc3N2)c1 (stereo not shown) [Compound 69L139] | 0.66
O=S(=O)(Nc1ccc(Br)c(Br)c1)c1ccc2c(c1)[C@H]1OCC[C@H]1[C@H](C1CCCCC1)N2 [Compound 69L68] | 5.1
Cc1ccc(NS(=O)(=O)c2ccc3c(c2)C2OCC[C@H]2C(c2ccc(C(=O)C(C)C)cc2)N3)cc1 (stereo in doubt) [Compound 69L85, 4-(4-isobutyrylphenyl)-N-(p-tolyl)-2,3,3a,4,5,9b-hexahydrofuro[3,2-c]quinoline-8-sulfonamide] | 3.33
Cc1ccc(NS(=O)(=O)c2ccc3c(c2)C2OCC[C@@H]2[C@@H](c2ccc(C(=O)C(C)C)cc2)N3)cc1C (stereo partly shown) [Compound 69L52c] | 2.4 to 2.5
CC(C)C(=O)c1cccc(C2CC(=O)c3cc(S(=O)(=O)Nc4cccc(C#N)c4)ccc3N2)c1 (stereo not shown) [Compound 69L155] | 1.45
CCc1cccc(NS(=O)(=O)c2ccc3c(c2)C(=O)CC(c2cccc(C(=O)N(C)C)c2)N3)c1 (stereo not shown) [Compound 69L166] | 0.11
Cc1ccc(NS(=O)(=O)c2ccc3c(c2)C2[C@@H](CCN2C(=O)OC(C)(C)C)C(c2ccc(S(C)(=O)=O)cc2)N3)cc1C (stereo partly shown) [Compound 69L42] | 19.9
Cc1ccc(NS(=O)(=O)c2ccc3c(c2)[C@H]2OCC[C@H]2C(c2ccc(C(=O)C4CC4)cc2)N3)cc1Cl (stereo partly shown) [Compound 69L69] | 5.81
CCC(=O)c1cccc(NS(=O)(=O)c2ccc3c(c2)C2OCC[C@H]2C(c2ccc(C(=O)C(C)C)cc2)N3)c1 (stereo partly shown) [Compound 69L125, 4-(4-isobutyrylphenyl)-N-(3-propionylphenyl)-2,3,3a,4,5,9b-hexahydrofuro[3,2-c]quinoline-8-sulfonimide] | 1.48
